Species on record: Rattus norvegicus
Assay: DrugMatrix - Regimen: Daily Repeat
Type: toxicity, organism-based, Sprague-Dawley
Design: regimen Daily Repeat, gender Male, age 6-8 weeks
Conditions: in vivo, po, route oral GAVAGE, vehicle .5 % CMC; for ABSOLUTE BASOPHIL / ABSOLUTE EOSINOPHIL / ABSOLUTE LYMPHOCYTE / ABSOLUTE MONOCYTE / ABSOLUTE SEGMENTED NEUTROPHIL / BASOPHIL / EOSINOPHIL / ERYTHROCYTE COUNT / HEMATOCRIT / HEMOGLOBIN / LEUKOCYTE COUNT / LYMPHOCYTE / MEAN CORPUSCULAR HEMOGLOBIN / MEAN CORPUSCULAR HEMOGLOBIN CONCENTRATION / MEAN CORPUSCULAR VOLUME / MONOCYTE / NEUTROPHIL / NUCLEATED RED BLOOD CELLS / PLATELET COUNT: tissue Blood; for ALANINE AMINOTRANSFERASE / ALBUMIN / ALKALINE PHOSPHATASE / ASPARTATE AMINOTRANSFERASE / BLOOD UREA NITROGEN / CARBON DIOXIDE / CHLORIDE / CHOLESTEROL / CREATINE PHOSPHOKINASE / CREATININE / GLUCOSE / LACTATE DEHYDROGENASE / LIPASE / PHOSPHORUS / POTASSIUM / SODIUM / TOTAL BILIRUBIN / TOTAL PROTEIN / URIC ACID: tissue Plasma
[1] = 0 mg/kg, 72 h, dose level Control, time 3 day
[2] = 0 mg/kg, 120 h, dose level Control, time 5 day
[3] = 50 mg/kg, 72 h, dose level Low, time 3 day

CC(=O)O[C@]1(C(C)=O)CC[C@H]2[C@@H]3C=C(Cl)C4=CC(=O)[C@@H]5C[C@@H]5[C@]4(C)[C@H]3CC[C@@]21C [CYPROTERONE ACETATE]
ABSOLUTE BASOPHIL [1]: 0 CELLS/uL
ABSOLUTE EOSINOPHIL [1]: 0 CELLS/uL
ABSOLUTE LYMPHOCYTE [1]: 12191.17 CELLS/uL
ABSOLUTE MONOCYTE [1]: 183.17 CELLS/uL
ABSOLUTE SEGMENTED NEUTROPHIL [1]: 1192.33 CELLS/uL
BASOPHIL [1]: 0%
EOSINOPHIL [1]: 0%
ERYTHROCYTE COUNT [1]: 5.51 x10E6/uL
HEMATOCRIT [1]: 35.45%
HEMOGLOBIN [1]: 13.82 G/DL
LEUKOCYTE COUNT [1]: 13.57 x10E3/uL
LYMPHOCYTE [1]: 89.83%
MEAN CORPUSCULAR HEMOGLOBIN [1]: 25.1 pg
MEAN CORPUSCULAR HEMOGLOBIN CONCENTRATION [1]: 38.98 G/DL
MEAN CORPUSCULAR VOLUME [1]: 64.42 fL
MONOCYTE [1]: 1.33%
NEUTROPHIL [1]: 8.83%
NUCLEATED RED BLOOD CELLS [1]: 0 /100WBC
PLATELET COUNT [1]: 1118.17 x10E3/uL
ALANINE AMINOTRANSFERASE [1]: 55 u/L
ALBUMIN [1]: 4.15 G/DL
ALKALINE PHOSPHATASE [1]: 449.5 u/L
ASPARTATE AMINOTRANSFERASE [1]: 112.83 u/L
BLOOD UREA NITROGEN [1]: 17.33 mg/dL
CARBON DIOXIDE [1]: 29.5 mmol/L
CHLORIDE [1]: 101 MEQ/L
CHOLESTEROL [1]: 70 mg/dL
CREATINE PHOSPHOKINASE [1]: 1325.83 u/L
CREATININE [1]: 0.18 mg/dL
GLUCOSE [1]: 171.5 mg/dL
LACTATE DEHYDROGENASE [1]: 386 u/L
LIPASE [1]: 10 u/L
PHOSPHORUS [1]: 11.57 mg/dL
POTASSIUM [1]: 6.21 MEQ/L
SODIUM [1]: 141.65 MEQ/L
TOTAL BILIRUBIN [1]: 0.15 mg/dL
TOTAL PROTEIN [1]: 5.75 G/DL
URIC ACID [1]: 1.28 mg/dL
ABSOLUTE BASOPHIL [2]: 0 CELLS/uL
ABSOLUTE EOSINOPHIL [2]: 138.17 CELLS/uL
ABSOLUTE LYMPHOCYTE [2]: 13283.17 CELLS/uL
ABSOLUTE MONOCYTE [2]: 303.83 CELLS/uL
ABSOLUTE SEGMENTED NEUTROPHIL [2]: 1308.17 CELLS/uL
BASOPHIL [2]: 0%
EOSINOPHIL [2]: 1%
ERYTHROCYTE COUNT [2]: 5.32 x10E6/uL
HEMATOCRIT [2]: 33.8%
HEMOGLOBIN [2]: 13.63 G/DL
LEUKOCYTE COUNT [2]: 15.03 x10E3/uL
LYMPHOCYTE [2]: 88.33%
MEAN CORPUSCULAR HEMOGLOBIN [2]: 25.68 pg
MEAN CORPUSCULAR HEMOGLOBIN CONCENTRATION [2]: 40.35 G/DL
MEAN CORPUSCULAR VOLUME [2]: 63.67 fL
MONOCYTE [2]: 1.83%
NEUTROPHIL [2]: 8.83%
NUCLEATED RED BLOOD CELLS [2]: 0 /100WBC
PLATELET COUNT [2]: 1097.5 x10E3/uL
ALANINE AMINOTRANSFERASE [2]: 54.5 u/L
ALBUMIN [2]: 4.27 G/DL
ALKALINE PHOSPHATASE [2]: 337 u/L
ASPARTATE AMINOTRANSFERASE [2]: 94.67 u/L
BLOOD UREA NITROGEN [2]: 17 mg/dL
CARBON DIOXIDE [2]: 28.33 mmol/L
CHLORIDE [2]: 101.5 MEQ/L
CHOLESTEROL [2]: 71.33 mg/dL
CREATINE PHOSPHOKINASE [2]: 628.17 u/L
CREATININE [2]: 0.19 mg/dL
GLUCOSE [2]: 177.83 mg/dL
LACTATE DEHYDROGENASE [2]: 500.5 u/L
LIPASE [2]: 9.5 u/L
PHOSPHORUS [2]: 12.3 mg/dL
POTASSIUM [2]: 5.63 MEQ/L
SODIUM [2]: 143.03 MEQ/L
TOTAL BILIRUBIN [2]: 0.2 mg/dL
TOTAL PROTEIN [2]: 6.02 G/DL
URIC ACID [2]: 1.5 mg/dL
ABSOLUTE BASOPHIL [3]: 0 CELLS/uL
ABSOLUTE EOSINOPHIL [3]: 48.33 CELLS/uL
ABSOLUTE LYMPHOCYTE [3]: 14035.67 CELLS/uL
ABSOLUTE MONOCYTE [3]: 48.33 CELLS/uL
ABSOLUTE SEGMENTED NEUTROPHIL [3]: 1667.67 CELLS/uL
BASOPHIL [3]: 0%
EOSINOPHIL [3]: 0.33%
ERYTHROCYTE COUNT [3]: 5.31 x10E6/uL
HEMATOCRIT [3]: 35.1%
HEMOGLOBIN [3]: 13.77 G/DL
LEUKOCYTE COUNT [3]: 15.8 x10E3/uL
LYMPHOCYTE [3]: 88.67%
MEAN CORPUSCULAR HEMOGLOBIN [3]: 25.93 pg
MEAN CORPUSCULAR HEMOGLOBIN CONCENTRATION [3]: 39.23 G/DL
MEAN CORPUSCULAR VOLUME [3]: 66.13 fL
MONOCYTE [3]: 0.33%
NEUTROPHIL [3]: 10.67%
NUCLEATED RED BLOOD CELLS [3]: 0 /100WBC
PLATELET COUNT [3]: 1211 x10E3/uL
ALANINE AMINOTRANSFERASE [3]: 71.67 u/L
ALBUMIN [3]: 4.43 G/DL
ALKALINE PHOSPHATASE [3]: 396.67 u/L
ASPARTATE AMINOTRANSFERASE [3]: 84.67 u/L
BLOOD UREA NITROGEN [3]: 21.67 mg/dL
CARBON DIOXIDE [3]: 28 mmol/L
CHLORIDE [3]: 100.67 MEQ/L
CHOLESTEROL [3]: 88.33 mg/dL
CREATINE PHOSPHOKINASE [3]: 202.33 u/L
CREATININE [3]: 0.15 mg/dL
GLUCOSE [3]: 155.67 mg/dL
LACTATE DEHYDROGENASE [3]: 202 u/L
LIPASE [3]: 10.67 u/L
PHOSPHORUS [3]: 11.13 mg/dL
POTASSIUM [3]: 6.55 MEQ/L
SODIUM [3]: 141.9 MEQ/L
TOTAL BILIRUBIN [3]: 0.13 mg/dL
TOTAL PROTEIN [3]: 6.27 G/DL
URIC ACID [3]: 1.47 mg/dL

From ChEMBL document CHEMBL3885881, “DrugMatrix”
